What was measured:
Format in all cases: cell-based, human
[1] = test system: iBMEC barrier function; assay: TEER measurement on prototype TEER chips under flow; conditions: exposure of the chips to TNFa after flow, FIG. 14A
Procedure: Cells were plated on tall channel PDMS chips equipped with incorporated gold electrodes on each channel (see FIG. 13A). Post seeding of BMECs, transendothelial electrical resistance was measured by connecting the electrodes to an EVOM2 voltohmmeter (see FIG. 13B). […] The “damaged” chip was a failure due to the TEER-Chips being a prototype.
Higher TEER values generally indicate a tighter barrier, which is typically desirable for a blood-brain barrier.

[2] = test system: BMECs seeded on a microfluidic device; assay: Paracellular permeability assay with Dextran-FITC on chip; conditions: TNF-alpha exposure, FIG. 14B
Procedure: Albumin or Dextran conjugated to a fluorescent probe (e.g., FITC or TRITC) are frequently used to monitor changes in leakage, and thus barrier function. In this case, Dextran-FITC, a green fluorescent molecule of 4 KDa, or sodium fluorescein (a 0.3 KDa molecule), was added to the bottom (“blood side”) channel. Paracellular permeability was calculated by measuring the permeability of the fluorescent molecule on the Top (“brain side”) channel. […] FIG. 14B involves TNF-alpha exposure, but the readout is membrane permeability as measured by Dextran-FITC.

[3] = test system: neurons seeded in chip

Row | Compound | iBMEC barrier function (TEER) [1] | membrane permeability as measured by Dextran-FITC [2] | neuronal activity (Ca2+ fluxes, dF/F) [3]
1 | TNFa | weakening of barrier function | increase in permeability | 
2 | NC1=N[C@H](O)[C@H]2[C@H]3O[C@]4(O)O[C@@H]([C@@H](O)[C@@]2(N1)[C@@H]4O)[C@]3(O)CO [TTX, tetrodotoxin] |  |  | ablates this activity
